Test results as given in US20070269513A1, “Liver selective drug therapy” (priority 1999, published 2007).
Values joined by “and” are separate entries in the source; they are usually repeats but may differ in a detail not shown here. Equal entries are not always repeated.

Legend:
[1] = review as at 18 Nov. 2004; cited from earlier work
[2] = Kinetic study of slow-release propranolol granules given by mouth to anaesthetised dogs; portal venous and systemic blood concentration; type: in vivo; details: for Propranolol Concentration, Systemic: systemic blood
From the text: Experiments were undertaken in four dogs under general anaesthesia induced with halothane and then maintained with ketamine and xylazine. Cardiovascular status was monitored by measurement of heart rate and blood pressure and by measurement of arterial blood gases. Ventilation was assisted to maintain blood gases within physiological limits. A catheter was placed in the femoral artery to permit sampling of arterial blood. After laparotomy, a catheter was placed in a mesenteric vein and advanced to the portal vein to permit sampling of portal venous blood samples.
Propranolol was administered by mouth on the evening before, and then again one hour before the study as a dose of 40 mg in granules taken from a 160 mg slow release formulation of propranolol (Cardinol; Pacific Pharmaceuticals New Zealand). […] The animals were sacrificed at the end of he experiment.
The concentration in systemic blood was generally below the level of detection (<5 ug/ml).

[3] = in vivo; cited from earlier work
[4] = FDA MEDWATCH, in words; cited from earlier work

CC[C@H](C)C(=O)O[C@H]1C[C@H](O)C=C2C=C[C@H](C)[C@H](CC[C@@H](O)C[C@@H](O)CC(=O)O)[C@H]21 [Pravastatin]
transient global amnesia cases within Australia [1]: 3 cases

CC(C)NCC(O)COc1cccc2ccccc12 (centres unmarked) [Propranolol, propranolol]
concentration at 60 min ([2]; dog, portal venous whole blood, oral, 40 mg, portal vein, 60 min, individual dogs 1-4): 5800 ng/mL
concentration in systemic blood ([2]; generally below the level of detection, summary of the table): < 5 µg/mL
Propranolol Concentration, Portal Vein ([2]; portal vein, 30 min, individual dogs 1-4): 11.5 µg/mL and 11.8 µg/mL and 13 µg/mL and 2 µg/mL
Propranolol Concentration, Portal Vein ([2]; portal vein, 60 min, individual dogs 1-4): 10.9 µg/mL and 10 µg/mL and 6 µg/mL
Propranolol Concentration, Portal Vein ([2]; portal vein, 90 min, individual dogs 1-4): 22 µg/mL and 14.4 µg/mL and 10 µg/mL and 5 µg/mL
Propranolol Concentration, Portal Vein ([2]; portal vein, 120 min, individual dogs 1-4): <5 µg/mL and 13 µg/mL and 4 µg/mL
Propranolol Concentration, Portal Vein ([2]; portal vein, Baseline, 40 mg slow-release granules by mouth evening before and one hour before study, individual dogs 1-4): <5 µg/mL and 28.8 µg/mL and 21 µg/mL and 36 µg/mL
portal versus systemic concentration (liver selectivity) ([2]; small series in dogs, conclusion in words): concentration gradients between portal and systemic vessels
Propranolol Concentration, Systemic ([2]; 30 min, individual dogs 1-4): <5 ug/ml (2×) and 2 ug/ml and <2 ug/ml
Propranolol Concentration, Systemic ([2]; 60 min, individual dogs 1-4): 6.2 µg/mL and <5 µg/mL and 2 µg/mL and <2 µg/mL
Propranolol Concentration, Systemic ([2]; 90 min, individual dogs 1-4): 5.8 µg/mL and <5 µg/mL and 2 µg/mL and <2 µg/mL
Propranolol Concentration, Systemic ([2]; 120 min, individual dogs 1-4): <5 µg/mL and 2 µg/mL and <2 µg/mL
Propranolol Concentration, Systemic ([2]; Baseline, individual dogs 1-4): <5 ug/ml (2×) and 3 ug/ml and <2 ug/ml

CC(C)c1c(C(=O)Nc2ccccc2)c(-c2ccccc2)c(-c2ccc(F)cc2)n1CC[C@@H](O)C[C@@H](O)CC(=O)O [Atorvastatin]
transient global amnesia cases within Australia [1]: 7 cases

CCC(C)(C)C(=O)O[C@H]1C[C@@H](C)C=C2C=C[C@H](C)[C@H](CC[C@@H]3C[C@@H](O)CC(=O)O3)[C@H]21 [simvastatin]
half-life [3]: 42 to 240 min

COCc1c(C(C)C)nc(C(C)C)c(/C=C/[C@@H](O)C[C@@H](O)CC(=O)O)c1-c1ccc(F)cc1 [Cerivastatin, cerivastatin]
implication in statin-associated rhabdomyolysis reports [4]: most commonly implicated statin
